What was measured:
Assay type in all cases: in vivo
[1] = system: Zea mays; assay: Test Example 4: effect on crop by application to foliage (diluvial soil, plastic box); settings: application to foliage; for effect on crop, b (Zea mays): 320 g/ha
Procedure, shortened: (§1)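 Read-out is a 0–5 visual grade of herbicidal ratio (5: ≥90%, almost withered; 0: ≤5%) taken three weeks after treatment. Compound was applied as a diluted emulsion to stem and leaf parts of 14-day greenhouse-grown plants (25° C. to 30° C.) at rates expressed as g/ha.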

[2] = system: Brassica campestris L.; assay: as above; settings: application to foliage; for effect on crop, g (Brassica campestris L.): 320 g/ha
Procedure, shortened: as §1

[3] = system: Triticum aestivum; assay: as above; settings: application to foliage; for effect on crop, e (Triticum aestivum): 320 g/ha
Procedure, shortened: as §1

[4] = system: Beta vulgaris ssp. vulgaris; assay: as above; settings: application to foliage; for effect on crop, f (Beta vulgaris ssp. vulgaris): 320 g/ha
Procedure, shortened: as §1

[5] = system: directly sowed Oryza sativa; assay: as above; settings: application to foliage; for effect on crop, d (directly sowed Oryza sativa): 320 g/ha
Procedure, shortened: as §1

[6] = system: Glycine max; assay: as above; settings: application to foliage; for effect on crop, c (Glycine max): 320 g/ha
Procedure, shortened: as §1

[7] = system: Abutilon theophrasti; assay: Test Example 4: herbicidal effect by application to foliage (diluvial soil, plastic box); settings: application to foliage; for herbicidal effect, M (Abutilon theophrasti): 320 g/ha
Procedure, shortened: as §1

[8] = system: Amaranthus retroflexus; assay: as above; settings: application to foliage; for herbicidal effect, N (Amaranthus retroflexus): 320 g/ha
Procedure, shortened: as §1

[9] = system: Digitaria ciliaris; assay: as above; settings: application to foliage; for herbicidal effect, F (Digitaria ciliaris): 320 g/ha
Procedure, shortened: as §1

[10] = system: Chenopodium album; assay: as above; settings: application to foliage; for herbicidal effect, O (Chenopodium album): 320 g/ha
Procedure, shortened: as §1

[11] = system: Alopecurus myosuroides; assay: as above; settings: application to foliage; for herbicidal effect, J (Alopecurus myosuroides): 320 g/ha
Procedure, shortened: as §1

[12] = system: Setaria viridis; assay: as above; settings: application to foliage; for herbicidal effect, G (Setaria viridis): 320 g/ha
Procedure, shortened: as §1

[13] = system: Veronica persica; assay: as above; settings: application to foliage; for herbicidal effect, R (Veronica persica): 320 g/ha
Procedure, shortened: as §1

[14] = system: Echinochloa crus-galli var. crus-galli; assay: as above; settings: application to foliage; for herbicidal effect, H (Echinochloa crus-galli var. crus-galli): 320 g/ha
Procedure, shortened: as §1

[15] = system: Stellaria media; assay: as above; settings: application to foliage; for herbicidal effect, P (Stellaria media): 320 g/ha
Procedure, shortened: as §1

[16] = system: Lolium multiflorum Lam.; assay: as above; settings: application to foliage; for herbicidal effect, K (Lolium multiflorum Lam.): 320 g/ha
Procedure, shortened: as §1

[17] = system: Apera spica-venti.; assay: as above; settings: application to foliage; for herbicidal effect, L (Apera spica-venti.): 320 g/ha
Procedure, shortened: as §1

[18] = system: Galium spurium; assay: as above; settings: application to foliage; for herbicidal effect, Q (Galium spurium): 320 g/ha
Procedure, shortened: as §1

[19] = system: Avena fatua; assay: as above; settings: application to foliage; for herbicidal effect, I (Avena fatua): 320 g/ha
Procedure, shortened: as §1

[20] = system: Leptochloa chinensis; assay: Test Example 3: herbicidal effect by application to foliage (Wagner pot, water depth 0.1-0.5 cm); settings: Nineteenth Table; application to foliage; application herbicide amount 320 g/ha
Procedure, shortened: (§2)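 Plants are raised 14 days from seed in flooded-surface Wagner pots at 25–30 °C, sprayed on stems and leaves with diluted emulsion at a predetermined rate, and rated three weeks on using a 0–5 herbicidal-ratio scale (5 ≥90%).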

[21] = system: Echinochloa crus-galli var. crus-galli; assay: as above; settings: Nineteenth Table; application to foliage; application herbicide amount 320 g/ha
Procedure, shortened: as §2

[22] = application herbicide amount 320 g/ha

SMILES	D (herbicidal effect grade) [20]	H (herbicidal effect grade) [21]	effect on crop, b (Zea mays) [1]	effect on crop, g (Brassica campestris L.) [2]	effect on crop, e (Triticum aestivum) [3]	effect on crop, f (Beta vulgaris ssp. vulgaris) [4]	effect on crop, d (directly sowed Oryza sativa) [5]	effect on crop, c (Glycine max) [6]	herbicidal effect, M (Abutilon theophrasti) [7]	herbicidal effect, N (Amaranthus retroflexus) [8]	herbicidal effect, F (Digitaria ciliaris) [9]	herbicidal effect, O (Chenopodium album) [10]	herbicidal effect, J (Alopecurus myosuroides) [11]	herbicidal effect, G (Setaria viridis) [12]	herbicidal effect, R (Veronica persica) [13]	herbicidal effect, H (Echinochloa crus-galli var. crus-galli) [14]	herbicidal effect, P (Stellaria media) [15]	herbicidal effect, K (Lolium multiflorum Lam.) [16]	herbicidal effect, L (Apera spica-venti.) [17]	herbicidal effect, Q (Galium spurium) [18]	also measured
C=CCN(C)c1nnc2c(C(=O)Nc3nnco3)ccc(C(F)(F)F)n12 [1-172]	5 (Herbicidal ratio of 90% or more (almost completely withered))	5 (Herbicidal ratio of 90% or more (almost completely withered))																			c: effect on crop, Zea mays [1, 22]: 0 (Herbicidal ratio of 5% or less (almost no effect)); g: effect on crop, Brassica campestris L. [2, 22]: 4 (Herbicidal ratio of 70% or more and less than 90%); e: effect on crop, Triticum aestivum [3, 22]: 1 (Herbicidal ratio of 5% or more and less than 20%); f: effect on crop, Beta vulgaris ssp. vulgaris [4, 22]: 5 (Herbicidal ratio of 90% or more (almost completely withered)); b: effect on crop, directly sowed Oryza sativa [5, 22]: 3 (Herbicidal ratio of 40% or more and less than 70%); d: effect on crop, Glycine max [6, 22]: 4 (Herbicidal ratio of 70% or more and less than 90%); M: herbicidal effect on Abutilon theophrasti [7, 22]: 5 (Herbicidal ratio of 90% or more (almost completely withered)); N: herbicidal effect on Amaranthus retroflexus [8, 22]: 5 (Herbicidal ratio of 90% or more (almost completely withered)); F: herbicidal effect on Digitaria ciliaris [9, 22]: 5 (Herbicidal ratio of 90% or more (almost completely withered)); O: herbicidal effect on Chenopodium album [10, 22]: 5 (Herbicidal ratio of 90% or more (almost completely withered)); J: herbicidal effect on Alopecurus myosuroides [11, 22]: 1 (Herbicidal ratio of 5% or more and less than 20%); G: herbicidal effect on Setaria viridis [12, 22]: 4 (Herbicidal ratio of 70% or more and less than 90%); R: herbicidal effect on Veronica persica [13, 22]: 4 (Herbicidal ratio of 70% or more and less than 90%); H: herbicidal effect on Echinochloa crus-galli var. crus-galli [14, 22]: 5 (Herbicidal ratio of 90% or more (almost completely withered)); P: herbicidal effect on Stellaria media [15, 22]: 5 (Herbicidal ratio of 90% or more (almost completely withered)); K: herbicidal effect on Lolium multiflorum Lam. [16, 22]: 1 (Herbicidal ratio of 5% or more and less than 20%); L: herbicidal effect on Apera spica-venti. [17, 22]: 1 (Herbicidal ratio of 5% or more and less than 20%); Q: herbicidal effect on Galium spurium [18, 22]: 4 (Herbicidal ratio of 70% or more and less than 90%); I: herbicidal effect on Avena fatua [19, 22]: 2 (Herbicidal ratio of 20% or more and less than 40%)
CC(=O)OCc1nnc2c(C(=O)Nc3nnnn3C)ccc(C(F)(F)F)n12 [2-107]	5 (Herbicidal ratio of 90% or more (almost completely withered))	4 (Herbicidal ratio of 70% or more and less than 90%)	3 (Herbicidal ratio of 40% or more and less than 70%)	4 (Herbicidal ratio of 70% or more and less than 90%)	0 (Herbicidal ratio of 5% or less (almost no effect))	5 (Herbicidal ratio of 90% or more (almost completely withered))	5 (Herbicidal ratio of 90% or more (almost completely withered))	0 (Herbicidal ratio of 5% or less (almost no effect))	5 (Herbicidal ratio of 90% or more (almost completely withered))	5 (Herbicidal ratio of 90% or more (almost completely withered))	5 (Herbicidal ratio of 90% or more (almost completely withered))	5 (Herbicidal ratio of 90% or more (almost completely withered))	0 (Herbicidal ratio of 5% or less (almost no effect))	3 (Herbicidal ratio of 40% or more and less than 70%)	5 (Herbicidal ratio of 90% or more (almost completely withered))	5 (Herbicidal ratio of 90% or more (almost completely withered))	5 (Herbicidal ratio of 90% or more (almost completely withered))	0 (Herbicidal ratio of 5% or less (almost no effect))	0 (Herbicidal ratio of 5% or less (almost no effect))	4 (Herbicidal ratio of 70% or more and less than 90%)	herbicidal effect, I (Avena fatua) [19]: 1 (Herbicidal ratio of 5% or more and less than 20%)
Cn1nnnc1NC(=O)c1ccc(C(F)(F)F)n2c(CO)nnc12 [2-108]	5 (Herbicidal ratio of 90% or more (almost completely withered))	4 (Herbicidal ratio of 70% or more and less than 90%)	4 (Herbicidal ratio of 70% or more and less than 90%)	5 (Herbicidal ratio of 90% or more (almost completely withered))	1 (Herbicidal ratio of 5% or more and less than 20%)	5 (Herbicidal ratio of 90% or more (almost completely withered))	4 (Herbicidal ratio of 70% or more and less than 90%)	0 (Herbicidal ratio of 5% or less (almost no effect))	5 (Herbicidal ratio of 90% or more (almost completely withered))	5 (Herbicidal ratio of 90% or more (almost completely withered))	4 (Herbicidal ratio of 70% or more and less than 90%)	5 (Herbicidal ratio of 90% or more (almost completely withered))	0 (Herbicidal ratio of 5% or less (almost no effect))	3 (Herbicidal ratio of 40% or more and less than 70%)	5 (Herbicidal ratio of 90% or more (almost completely withered))	5 (Herbicidal ratio of 90% or more (almost completely withered))	5 (Herbicidal ratio of 90% or more (almost completely withered))	0 (Herbicidal ratio of 5% or less (almost no effect))	0 (Herbicidal ratio of 5% or less (almost no effect))	4 (Herbicidal ratio of 70% or more and less than 90%)	herbicidal effect, I (Avena fatua) [19]: 1 (Herbicidal ratio of 5% or more and less than 20%)
